Measured values from US20110077230A1, “COPPER ORGANOCOMPLEXES, USE THEREOF AS ANTITUMOR MEANS AND FOR PROTECTING HEALTHY TISSUE FROM IONIZING RADIATION” (CHARITE - UNIVERSITATSMEDIZIN BERLIN, priority 2008, published 2011).

Tests used:
[1] = tested on: primary lymphoblasts from ALL patients; test: Ex vivo induction of apoptosis in primary lymphoblasts; type: cell-based, human; settings: concentration in LC50 range of NALM-6, 60 hours, cells resistant to daunorubicin and doxorubicin
Experimental: Thereafter, the cells were incubated for 60 hours at 37° C. and 5% CO2, subsequently stained with propidium iodide and quantified using flow cytometry in an FACS.

BJAB cells = test: Change in mitochondrial membrane potential (JC-1, flow cytometry) in BJAB cells; type: cell-based, human; settings: 48 hours, concentration-dependent
Experimental: Following treatment of the BJAB cells with different concentrations of complex A, carrying along a zero control and a solvent control, the cells were incubated for 48 hours at a temperature of 37° C. and 5% CO2. […] A concentration-dependent change of the mitochondrial membrane potential induced by complex A is found in more than 30% of the cells.

lymphoma cells (BJAB) = test: Combined administration of complex A and cytarabine, DNA fragmentation; type: cell-based, human; settings: 48 hours
Experimental: Incubation was performed for 48 hours at 37° C. and 5% CO2, carrying along zero and solvent controls. DNA fragmentation is determined by flow cytometry after staining the cells with propidium iodide.

melanoma B 16 = test: B 16 melanoma in mice, intraabdominal administration; type: in vivo, mice of the line C 57Bl; settings: for Average volume of tumor / Average weight of tumor: days 3, 5, 7, 9
Experimental: The melanoma B 16 was implanted in 20 mice of the line C 57Bl by subcutaneous injection into the right thigh. The animals were divided into four groups of five mice each. Group I received complex A at a dosage of 7 mg/kg, dissolved in DMSO, which was administered intraabdominally in a 4% suspension in physiological saline. Each administration was performed 3, 5, 7 and 9 days after trans-plantation of the tumor.
Group II was treated as group I, but using a dosage of 5 mg/kg.
Group III was treated as group I, but received 5 mg/kg of melphalan hydrochloride instead of complex A.
Group IV remained untreated.

[2] = tested on: colon adenocarcinoma tumor (AKATOL); test: Transplanted colon adenocarcinoma (AKATOL), intraabdominal injection; type: in vivo, mice of the BALB line; parameters: Average weight: unit not given here; settings: for Average volume of tumor: day 21
Experimental: A suspension of tumor cells was injected into the thighs of 15 mice of the BALB line. The animals received the complex A preparation at a dose of 5 mg/kg 4, 6, 8 and 11 days after implantation.
Group I received the preparation dissolved in DMSO and dispersed in a 4% suspension in physiological saline.
Group II received the preparation in Tween 60.
Group III remained untreated.
On day 21 of the experiment the animals were sacrificed and examined.

[3] = tested on: Ehrlich ascites carcinoma (EAC) cells; test: NADH state (fluorescence) in EAC cells; type: cell-based, mice
Experimental: (§1) The Ehrlich ascites carcinoma (EAC) was obtained from white male mice of the strain MNR1 and the thymocytes from the thymus of rats of the Wistar line. Vitality of the cells was tested by vital staining using trypan blue and experiments and determined to be no less than 95% in all experiments. The NADH state in the EAC cells was assessed with reference to their fluorescence intensity. Measurement of the intracellular calcium concentration was performed according to the standard methodology of fluorescence using chlortetracycline. The membrane potential was measured using the fluorescent dye No. 1104. NADH is a source of electrons in the oxidative phosphorylation process. […] These effects are directed to inhibiting the NAD-dependent dehydrogenase. As a result, the respiratory chain in the tumor cells is inhibited.

EAC cells = test: Cytosolic calcium (chlortetracycline fluorescence) in EAC cells; type: cell-based, mice; settings: depending on the dose
Experimental: as §1
(§2) The concentration of intracellular calcium is a trigger for a number of intracellular processes (FIG. 17c, 17d).

thymocytes = test: Cytosolic calcium (chlortetracycline fluorescence) in thymocytes; type: cell-based, rats of the Wistar line; settings: depending on the dose
Experimental: as §1, §2

[4] = tested on: hematopoietic cells in the spleen; test: Radioprotective effect in irradiated mice; type: in vivo, white mice; settings: 6 Gray; 5 mg/kg two hours prior to and three days after irradiation; day 9
Experimental: White mice of no particular race were irradiated with a sublethal dose of 6 Gray. […] The animals were sacrificed on day 9 after irradiation, and the number of hematopoietic cells in the spleen was determined. No hematopoietic cells were detected in the spleen of untreated animals.

[5] = tested on: Hep-2 tumor cells of human laryngeal carcinoma; test: Copper uptake by Hep-2 cells (EPR); type: cell-based
Experimental: Complex A dissolved in Tween 80 was mixed with liposomes from lecithin. This mixture was added with a culture of Hep-2 cells, and the EPR spectra were recorded over time. A culture having no complex A preparation was measured for comparison. The EPR spectra allow quantitative determination of the copper content in the tumor cells. […] This corresponds to an intake of 10 copper-containing molecules in a cell. This saturation value of the cells is reached within 1.5 to 2 hours (FIG. 21). In addition, the cell suspension was purified by filtration, and the filtrate containing the cellular components was fractionated using a centrifuge.

[6] = tested on: human mammary gland tumor cells, T4N2M0 stage; test: In vitro effect on human mammary gland tumor cells, Experiment 2; type: cell-based
Experimental: Tumor cells were collected from the surgical material of female patients suffering from mammary carcinoma at two different stages. The tumor tissue was added with sterile 0.25% trypsin solution and centrifuged repeatedly in RPMI-1640 nutrient medium for 15 minutes at 1500 revolutions per minute. The amount of resulting cells was counted and the suspension of tumor cells divided into five equal groups. The RPMI-1640 nutrient medium was added with 12% fetal calf serum. The cells were incubated for 48 h at 37° C. in a 5% CO2 stream.
The preparations were dissolved in 4% DMSO and physiological saline and acidified with HCl.
Two experiments were performed using cancer cells derived from tumors of different stages. To differentiate the various stages of cancer, the TNM classification is used internationally which takes into account the tumor size (T), lymph node affection (N=nodal status) and the extent of metastasis (M).
(T3: large tumor spreading into the tissue surrounding the breast; N2: metastases up to 9 axillary lymph nodes, M0: no distant metastases). A suspension including 40 million cells was added with 50 μl of each preparation.
The 5 groups with cancer cells received the following:
After subjecting the preparations to flow incubation for 60 minutes, trypan blue stained cells were produced, and dead cells and apoptosis could be determined; dead cells and apoptotic cells were determined in specific units of time and morphological findings.

[7] = Group I: 5 mg/kg in DMSO/physiological saline

## Copper-sarcolysine hydrochloride complex [complex A]
[1]
  induction of apoptosis in lymphoblasts: about 26%
BJAB cells
  cells with change of the mitochondrial membrane potential: more than 30%
Lymphoma cells (BJAB)
  synergy effect with cytarabine, induction of apoptosis: 129%
Melanoma B 16; 5 mg/kg intraabdominally
  Apoptotic index AI: 3.68 ‰
  Bone marrow index MI BM: 3.975 ‰
  Inhibition of tumor growth, mass percent: mass percent 84.44%
  Inhibition of tumor growth, volume percent: volume percent 80.00%
  Mitotic index of tumor cells MI: 2.175 ‰
  Average volume of tumor: 0.436 cm^3
  Average weight of tumor: 202.25 mg
Melanoma B 16; 7 mg/kg intraabdominally
  Apoptotic index AI: 4.25 ‰
  Bone marrow index MI BM: 3.575 ‰
  Inhibition of tumor growth, mass percent: mass percent 89.5%
  Inhibition of tumor growth, volume percent: volume percent 98.67%
  Mitotic index of tumor cells MI: 1.3. ‰
  Average volume of tumor: 0.029 cm^3
  Average weight of tumor: 136.8 mg
[2]; Group I: 5 mg/kg in DMSO, 4% suspension in physiological saline
  Average volume of tumor: 1.315 cm^3
[2]; [7]
  % inhibition, mass percent: 60.4%
  % inhibition, volume percent: 87.1%
  Average weight: 1.25
[2]; Group II: 5 mg/kg in Tween 60
  % inhibition, mass percent: 95.85%
  % inhibition, volume percent: 97.8%
  Average weight: 0.25
  Average volume of tumor: 0.217 cm^3
[3]
  response to oligomycin: reduce the response to oligomycin
EAC cells
  concentration of cytosolic calcium: increase
thymocytes
  concentration of cytosolic calcium: increase
[4]
  number of colonies of hematopoietic cells in the spleen: about 40 colonies
[5]; complex A in Tween 80 with lecithin liposomes, saturation value
  copper absorbed by Hep-2 cells: 4.5×10^13 spin per gram
[5]; corresponds to the spin value
  intake of copper-containing molecules in a cell: 10 molecules in a cell
[5]; fractionated filtrate, EPR signal of copper
  intracellular accumulation of the copper complex: accumulated almost entirely in the nuclear chromatin
[6]; Experiment 2, T4N2M0
  Living cells, %: 18.0 ± 1.71%
[6]; Experiment 2, T4N2M0, 40 million cells, 50 μl of preparation
  Dead cells, %: 82.0 ± 1.78%
